Results taken from ChEMBL document CHEMBL1149799, “Bioactive peroxides as potential therapeutic agents” (Eur J Med Chem, 2008).
pIC50: −log10 of the molar value. Converted amounts (≈) assume the structure as drawn.

Assays:
A549 [1] = test: Cytotoxicity against human A549 cells; format: functional, cell-based; settings: Homo sapiens, A549
P388 [2] = test: Cytotoxicity against mouse P388 cells; format: functional, cell-based; settings: Mus musculus, P388
HT-29 = test: Cytotoxicity against human HT29 cells; format: functional, cell-based; settings: Homo sapiens, HT-29
DU-145 = test: Cytotoxicity against human DU145 cells; format: functional, cell-based; settings: Homo sapiens, DU-145
[3] = Cytotoxicity against human MEL28 cells; settings: SK-MEL-28
P388 [4] = test: Cytotoxicity against mouse P388 cells at 0.05 ug/ml; format: functional
L1210 = test: Cytotoxicity against mouse L1210 cells; format: functional, cell-based; settings: Mus musculus, L1210
KB = test: Cytotoxicity against human KB cells; format: functional, cell-based; settings: Homo sapiens
LoVo = test: Cytotoxicity against human LoVo cells; format: functional
[5] = Cytotoxicity against human IGRO cells by soft agar assay; format: functional
BT-549 = test: Cytotoxicity against human BT549 cells by soft agar assay; format: functional
MOLT-4 = test: Cytotoxicity against human MOLT4 cells by soft agar assay; format: functional
A549 [6] = test: Cytotoxicity against human A549 cells by soft agar assay; format: functional
KM12 = test: Cytotoxicity against human KM12 cells by soft agar assay; format: functional
786-0 = test: Cytotoxicity against human renal 7860 cells by soft agar assay; format: functional
MDA-MB-231 = test: Cytotoxicity against human MDA-MB-231 cells; format: functional, cell-based
[7] = Cytotoxicity against mouse Ehrlich Ascites carcinoma by trypan blue exclusion assay; format: functional
HCT-116 = test: Cytotoxicity against human HCT116 cells; format: functional, cell-based
HeLa = test: Cytotoxicity against human HeLa cells; format: functional, cell-based
[8] = Cytotoxicity against human LOX cells by soft agar assay; format: functional

SMILES: C=CCCC/C=C/C=C\CCCCCCCC[C@H]1CC[C@@H]([C@H]2CC[C@@H](CC(=O)O)OO2)O1 [STOLONOXIDE B]
- IC50 (A549 [1]): 0.1 µg/mL
- IC50 (P388 [2]): 0.05 µg/mL (≈ 0.111 µM)
- IC50 (HT-29): 0.1 µg/mL
- IC50 (DU-145): 0.1 µg/mL (≈ 0.223 µM)
- IC50 [3]: 0.1 µg/mL (≈ 0.223 µM)

SMILES: C/C=C/CCCCCCCCC[C@]1(OC)C=C[C@H](CC(=O)OC)OO1
- inhibition at 0.05 µg/mL (P388 [4]): 50%

SMILES: CC(CC/C=C/CC/C=C/c1ccccc1)C[C@]1(C)C[C@@](C)(CC(=O)O)OO1 (some centres undefined) [PLAKINIC ACID D]
- IC50 (L1210): 0.026 µg/mL (≈ 0.0673 µM)
- MIC (KB): 0.001 µg/mL (≈ 0.00259 µM)
- MIC (LoVo): 0.001 µg/mL (≈ 0.00259 µM)

SMILES: C=CCC/C=C\C=C/CCCCCCCC[C@H]1CC[C@@H]([C@@H]2CC[C@@H](CC(=O)O)OO2)O1 [STOLONOXIDE A]
- IC50 (A549 [1]): 0.1 µg/mL
- IC50 (P388 [2]): 0.01 µg/mL (≈ 0.023 µM)
- IC50 (HT-29): 0.1 µg/mL
- IC50 (DU-145): 0.1 µg/mL (≈ 0.23 µM)
- IC50 [3]: 0.1 µg/mL (≈ 0.23 µM)

SMILES: CC(CCCC/C=C/CC/C=C\c1ccccc1)C[C@]1(C)C[C@@](C)(CC(=O)O)OO1 (some centres undefined) [PLAKINIC ACID C]
- IC50 (L1210): 0.017 µg/mL (≈ 0.041 µM)
- MIC (KB): 0.01 µg/mL (≈ 0.0241 µM)
- MIC (LoVo): 0.1 µg/mL (≈ 0.241 µM)

SMILES: C=CCC/C=C\C=C/CCCCCCCC[C@@H]1CC[C@@H]([C@@H]2CC[C@@H](CC(=O)[O-])OO2)O1.[Na+]
- IC50 (A549 [1]): 0.1 µg/mL
- IC50 (P388 [2]): 0.01 µg/mL
- IC50 (HT-29): 0.1 µg/mL
- IC50 (DU-145): 0.1 µg/mL
- IC50 [3]: 0.1 µg/mL

SMILES: C=C1CCC[C@H]2[C@](C)(CC[C@]3(C)CC[C@H]([C@@H](C)C(=O)O)OO3)[C@@H](C)CC[C@]12C [SIGMOSCEPTRELLIN A]
- GI50 [5]: 0.12 µM
- GI50 (BT-549): 0.96 µM

SMILES: COC(=O)C[C@@]1(C)C[C@@](C)(CC(C)CCCC/C=C/CC/C=C\c2ccccc2)OO1 (some centres undefined)
- IC50 (L1210): 0.29 µg/mL (≈ 0.677 µM)
- MIC (KB): 0.1 µg/mL (≈ 0.233 µM)
- MIC (LoVo): 1 µg/mL (≈ 2.33 µM)

SMILES: C=C1CCCC(C)(C)C1CC[C@]1(C)CC[C@@H]([C@@H](C)C(=O)O)OO1 (some centres undefined) [EPINUAPAPUIN B]
- GI50 (MOLT-4): > 5 µM
- GI50 (A549 [6]): > 5 µM
- GI50 (KM12): > 5 µM
- GI50 [5]: 1.73 µM
- GI50 (786-0): > 5 µM
- GI50 (BT-549): > 5 µM

SMILES: CC/C=C/C(CC)CC(C)C[C@]1(CC)C[C@H](CC)[C@H](CC(=O)OC)OO1 (some centres undefined)
- pIC50 (A549 [1]): 5.17
- pIC50 (HT-29): 4.89
- pIC50 (MDA-MB-231): 5.39

SMILES: C=CCC/C=C\C=C/CCCCCCCC[C@H]1CC[C@H]([C@@H]2CC[C@@H](CC(=O)OC)OO2)O1
- IC50 (A549 [1]): 0.1 µg/mL
- IC50 (P388 [2]): 0.5 µg/mL (≈ 1.11 µM)
- IC50 (HT-29): 0.05 µg/mL
- IC50 (DU-145): 0.1 µg/mL (≈ 0.223 µM)
- IC50 [3]: 0.5 µg/mL (≈ 1.11 µM)

SMILES: CO[C@H]1O[C@@H]2O[C@@]3(C)CC[C@H]4[C@H](C)CC[C@@H]([C@H]1C)[C@@]24OO3
- IC80 [7]: > 125 µM

SMILES: CC(CCCCCCCCc1ccccc1)CC(C)C[C@]1(C)C[C@](C)(CC(=O)O)OO1 (some centres undefined) [EPIPLAKINIC ACID H]
- pIC50 (HCT-116): 6.41

SMILES: C=C[C@@H](O)C#CC#C/C=C/C(CCCCCCC)OO (some centres undefined) [GINSENOYNE K]
- IC50 (L1210): 1.8 µg/mL (≈ 6.51 µM)
- IC50 (HeLa): 10.5 µg/mL (≈ 38 µM)

SMILES: C=CCCC/C=C/C=C\CCCCCCCC[C@H]1CC[C@H]([C@@H]2CC[C@@H](CC(=O)[O-])OO2)O1.[Na+] [STOLONOXIDE D]
- IC50 (A549 [1]): 0.1 µg/mL
- IC50 (P388 [2]): 0.5 µg/mL
- IC50 (HT-29): 0.05 µg/mL
- IC50 (DU-145): 0.1 µg/mL
- IC50 [3]: 0.1 µg/mL

SMILES: C=CCC/C=C\C=C/CCCCCCCC[C@@H]1CC[C@@H]([C@@H]2CC[C@@H](CC(=O)OC)OO2)O1
- IC50 (A549 [1]): 0.1 µg/mL
- IC50 (P388 [2]): 0.05 µg/mL (≈ 0.111 µM)
- IC50 (HT-29): 0.1 µg/mL
- IC50 (DU-145): 0.1 µg/mL (≈ 0.223 µM)
- IC50 [3]: 0.1 µg/mL (≈ 0.223 µM)

SMILES: COC(=O)C[C@@]1(C)C[C@@](C)(CC(C)CC/C=C/CC/C=C/c2ccccc2)OO1 (some centres undefined)
- IC50 (L1210): 0.003 µg/mL (≈ 0.00749 µM)
- MIC (KB): 0.1 µg/mL (≈ 0.25 µM)
- MIC (LoVo): 0.1 µg/mL (≈ 0.25 µM)

SMILES: CCCCCCCCCCCCCCC[C@@]1(OC)C=C[C@H](CC(=O)OC)OO1 [PLAKORIN]
- IC50 (L1210): 0.85 µg/mL (≈ 2.13 µM)
- IC50 (KB; KB): 1.8 µg/mL (≈ 4.52 µM)
- inhibition at 0.05 µg/mL (P388 [4]): 50%

SMILES: CCCCC(CC)CC(C)C[C@]1(CC)C[C@H](CC)[C@H](CC(=O)O)OO1 (some centres undefined) [PLAKORITIDE Q]
- pIC50 (A549 [1]): 5.44
- pIC50 (HT-29): 5.41
- pIC50 (MDA-MB-231): 5.05

SMILES: CCCCC(CC)CC(C)C[C@]1(CC)C[C@H](CC)[C@H](CC(=O)OC)OO1 (some centres undefined) [PLAKORITIDE Q ME]
- pIC50 (A549 [1]): 5.11
- pIC50 (HT-29): 4.89
- pIC50 (MDA-MB-231): 4.74

SMILES: CC(=O)[C@@H]1CC[C@@H](C)[C@@H]2CC[C@]3(C)OO[C@@]12[C@H](OC=O)O3
- pIC50 [7]: 4.04
- IC80 [7]: 156 µM

SMILES: C/C=C/C=C/CCCCCCCCC[C@]1(OC)C=C[C@H](CC(=O)OC)OO1
- inhibition at 0.05 µg/mL (P388 [4]): 50%

SMILES: CC(CCCCCCCCc1ccccc1)CC(C)C[C@@]1(C)C[C@](C)(CC(=O)O)OO1 (some centres undefined) [EPIPLAKINIC ACID G]
- pIC50 (HCT-116): 6.80

SMILES: C=C1CCCC(C)(C)C1CC[C@@]1(C)CC[C@H]([C@@H](C)C(=O)O)OO1 (some centres undefined) [NAPAPUIN B]
- GI50 [8]: 0.25 µM
- GI50 [5]: 0.63 µM

SMILES: C/C=C/C=C/CCCCCCC[C@]1(OC)C=C[C@H](CC(=O)OC)OO1
- inhibition at 0.05 µg/mL (P388 [4]): 50%

SMILES: COC(=O)C[C@]1(C)C[C@@](C)(CC(C)CC/C=C/CC/C=C/c2ccccc2)OO1 (some centres undefined)
- IC50 (L1210): 0.0043 µg/mL (≈ 0.0107 µM)
- MIC (KB): 1 µg/mL (≈ 2.5 µM)
- MIC (LoVo): 0.1 µg/mL (≈ 0.25 µM)

SMILES: C=CCCC/C=C/C=C\CCCCCCCC[C@H]1CC[C@H]([C@@H]2CC[C@@H](CC(=O)OC)OO2)O1
- IC50 (A549 [1]): 0.01 µg/mL
- IC50 (P388 [2]): 0.01 µg/mL (≈ 0.0216 µM)
- IC50 (HT-29): 0.05 µg/mL
- IC50 (DU-145): 0.1 µg/mL (≈ 0.216 µM)
- IC50 [3]: 0.1 µg/mL (≈ 0.216 µM)

SMILES: CC(CC/C=C/CC/C=C/c1ccccc1)C[C@@]1(C)C[C@@](C)(CC(=O)O)OO1 (some centres undefined) [EPIPLAKINIC ACID D]
- IC50 (L1210): 0.017 µg/mL (≈ 0.044 µM)
- MIC (KB): 0.1 µg/mL (≈ 0.259 µM)
- MIC (LoVo): 0.1 µg/mL (≈ 0.259 µM)

SMILES: COC(=O)C[C@]1(C)C[C@@](C)(CC(C)CCCC/C=C/CC/C=C\c2ccccc2)OO1 (some centres undefined)
- IC50 (L1210): 0.013 µg/mL (≈ 0.0303 µM)
- MIC (KB): 1 µg/mL (≈ 2.33 µM)
- MIC (LoVo): 1 µg/mL (≈ 2.33 µM)

SMILES: C[C@@H]1CC[C@@H]2[C@]34OO[C@@](C)(CC[C@@H]13)O[C@H]4OC(=O)[C@@]2(C)O
- pIC50 [7]: < 3.90
- IC80 [7]: > 125 µM

SMILES: C=CCC/C=C\C=C/CCCCCCCC[C@H]1CC[C@H]([C@@H]2CC[C@@H](CC(=O)[O-])OO2)O1.[Na+] [stolonoxide C]
- IC50 (A549 [1]): 0.1 µg/mL
- IC50 (P388 [2]): 0.5 µg/mL
- IC50 (HT-29): 0.1 µg/mL
- IC50 (DU-145): 0.1 µg/mL
- IC50 [3]: 0.5 µg/mL

SMILES: CCCC(CC)CC(C)C[C@]1(CC)C[C@H](CC)[C@H](CC(=O)OC)OO1 (some centres undefined)
- pIC50 (A549 [1]): 4.85
- pIC50 (HT-29): 4.91
- pIC50 (MDA-MB-231): 4.61

SMILES: C[C@H](C(=O)O)[C@@H]1CC[C@@](C)(CC[C@@]2(C)C3=CCCC(C)(C)[C@@H]3CC[C@H]2C)OO1 [MYCAPEROXIDE H]
- IC50 (HeLa): 0.8 µg/mL (≈ 2.04 µM)
